For experiment [1], the target named is T1, full-length proMMP9(1-707) (SEQ ID NO:1) (Homo sapiens, UniProt P14780, R574P).
T1 construct: made in house; host or cells: HEK293 (proMMP9, secreted); E. coli (MMP3)
Description: proMMP9/MMP3 P126 Activation Assay. Type of experiment: biochemical. The following applies: 20 nM proMMP9, 20 nM MMP3, 80 min 37° C. The protocol:
The reaction volume was 50 μL. […] Reactivity of residual MMP3 towards P-126 substrate was minimal under these conditions.

The target of experiment [2] is T2, proMMP9(67-444;ΔFnII) (SEQ ID NO:5) (Homo sapiens, UniProt P14780, DEL216-390).
T2 construct: start methionine (N); made in house; host or cells: E. coli BL21(DE3) RIL
T2 sequence (P14780 with tags, fused parts or gaps DEL216-390): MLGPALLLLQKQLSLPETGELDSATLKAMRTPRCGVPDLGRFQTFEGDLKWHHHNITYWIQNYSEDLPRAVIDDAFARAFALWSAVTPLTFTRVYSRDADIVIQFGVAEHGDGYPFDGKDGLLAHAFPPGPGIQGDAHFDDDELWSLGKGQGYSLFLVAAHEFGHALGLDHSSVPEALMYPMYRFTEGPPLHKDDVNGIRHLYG
Description: ThermoFluor binding assay with proMMP9(67-444;ΔFnII). The following applies: pH 7.0. As for the experimental part:
(§1) The ThermoFluor® (TF) assay is a 384-well plate-based binding assay that measures thermal stability of proteins (Biomol Screen 2001, 6, 429-40; Biochemistry 2005, 44, 5258-66). The experiments were carried out using instruments available from Johnson & Johnson Pharmaceutical Research & Development, LLC. TF dye used in all experiments was […] (1,8-ANS) (Invitrogen: A-47).
(§2) Compounds were arranged in a pre-dispensed plate (Greiner Bio-one: 781280), wherein compounds were serially diluted in 100% DMSO across 11 columns within a series. Columns 12 and 24 were used as DMSO reference and contained no compound. For multiple compound concentration-response experiments, the compound aliquots ([…]) were robotically predispensed directly into black 384-well polypropylene PCR microplates (Abgene: TF-0384/k) using a Cartesian Hummingbird liquid handler (DigiLab, Holliston, Mass.). Following compound dispense, protein and dye solutions were added to achieve the final assay volume of 3 μL. The assay solutions were overlayed with 1 μL of silicone oil (Fluka, type DC 200: 85411) to prevent evaporation.
(§3) Assay plates were robotically loaded onto a thermostatically controlled PCR-type thermal block and then heated from 40 to 90° C. at a ramp-rate of 1° C./min for all experiments. Fluorescence was measured by continuous illumination with UV light (Hamamatsu LC6) supplied via fiber optics and filtered through a band-pass filter (380-400 nm; >6 OD cutoff). Fluorescence emission of the entire 384-well plate was detected by measuring light intensity using a CCD camera (Sensys, Roper Scientific) filtered to detect 500±25 nm, resulting in simultaneous and independent readings of all 384 wells. A single image with 20-sec exposure time was collected at each temperature, and the sum of the pixel intensity in a given area of the assay plate was recorded vs temperature and fit to standard equations to yield the Tm (J Biomol Screen 2001, 6, 429-40).
(§4) Thermodynamic parameters necessary for fitting compound binding for each proMMP were estimated by differential scanning calorimetry (DSC) and from ThermoFluor® data. The heat capacity of unfolding for each protein was estimated from the molecular weight and from ThermoFluor® dosing data.
The protein sample preparations had to include a desalting buffer exchange step via a PD-10 gravity column (GE Healthcare). The desalting buffer exchange was performed prior to diluting the protein to the final assay concentration of 3.5 μM proMMP9(67-444;ΔFnII) (SEQ ID NO:5). The concentration of proMMP9(67-444;ΔFnII) (SEQ ID NO:5) was determined spectrophotometrically based on a calculated extinction coefficient of ε280=33900 M^−1cm^−1, a calculated molecular weight of 22.6 kDa, and calculated pI of 5.20. ThermoFluor® reference conditions were defined as follows: 80 μg/mL (3.5 μM) proMMP9(67-444;ΔFnII) (SEQ ID NO:5), 50 μM 1,8-ANS, pH 7.0 Buffer (50 mM HEPES pH 7.0, 100 mM NaCl, 0.001% Tween-20, 2.5 mM MgCl2, 300 μM CaCl2). The thermodynamic parameters for proMMP9(67-444;ΔFnII) (SEQ ID NO:5) are as follows: Tm (° C.)=63 (+/−0.1), ΔUH(Tm) (cal mol^−1)=105000(+/−5000), ΔUS(Tm) (cal mol^−1 K^−1)=[…], ΔUCp (cal mol^−1 K^−1)=2000.
On the technique in general: Differential scanning fluorimetry follows unfolding on heating by fluorescence.

The target of experiment [3] is T3, proMMP9(20-445;ΔFnII) (SEQ ID NO:6) (Homo sapiens, UniProt P14780, DEL216-390).
T3 construct: start methionine (N); made in house; host or cells: E. coli BL21(DE3) RIL
T3 sequence (P14780 with tags, fused parts or gaps DEL216-390): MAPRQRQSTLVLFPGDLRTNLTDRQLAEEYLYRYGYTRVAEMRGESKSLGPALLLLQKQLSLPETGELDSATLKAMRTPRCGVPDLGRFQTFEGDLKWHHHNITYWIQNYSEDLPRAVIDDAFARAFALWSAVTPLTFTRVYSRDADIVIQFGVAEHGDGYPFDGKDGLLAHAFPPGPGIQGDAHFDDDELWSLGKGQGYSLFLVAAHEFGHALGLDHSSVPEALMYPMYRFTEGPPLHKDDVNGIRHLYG
Description: ThermoFluor binding assay with proMMP9(20-445;ΔFnII). The following applies: pH 7.0. The protocol: as §1, §2, §3, §4
The protein sample preparations included a desalting buffer exchange step via a PD-10 gravity column (GE Healthcare). The desalting buffer exchange was performed prior to diluting the protein to the final assay concentration of 2.8 μM proMMP9(20-445;ΔFnII) (SEQ ID NO:6). The concentration of proMMP9(20-445;ΔFnII) (SEQ ID NO:6) was determined spectrophotometrically based on a calculated extinction coefficient of ε280=39880 M^−cm^−1, a calculated molecular weight of 28.2 kDa, and calculated pI of 5.5. ThermoFluor® reference conditions were define as follows: 80 μg/mL (2.8 μM) proMMP9(20-445;ΔFnII) (SEQ ID NO:6), 50 μM 1,8-ANS, pH 7.0 Buffer (50 mM HEPES pH 7.0, 100 mM NaCl, 0.001% Tween-20, 2.5 mM MgCl2, 300 μM CaCl2). The thermodynamic parameters for proMMP9(20-445;ΔFnII) (SEQ ID NO:6) are as follows: Tm (° C.)=72 (+/−0.1), ΔUH(Tm) (cal mol^−1)=160000(+/−5000), ΔUS(Tm) (cal mol^−1 K^−1)=434, ΔUCp (cal mol^−1 K^−)=2400.

Where a name gives a salt, the structure may show the parent alone.

These results are taken from patent US20120129842A1, “BISTHIAZOLE INHIBITORS OF PRO-MATRIX METALLOPROTEINASE ACTIVATION” (priority 2010, published 2012).

T1 sequence (P14780 20-707 R574P): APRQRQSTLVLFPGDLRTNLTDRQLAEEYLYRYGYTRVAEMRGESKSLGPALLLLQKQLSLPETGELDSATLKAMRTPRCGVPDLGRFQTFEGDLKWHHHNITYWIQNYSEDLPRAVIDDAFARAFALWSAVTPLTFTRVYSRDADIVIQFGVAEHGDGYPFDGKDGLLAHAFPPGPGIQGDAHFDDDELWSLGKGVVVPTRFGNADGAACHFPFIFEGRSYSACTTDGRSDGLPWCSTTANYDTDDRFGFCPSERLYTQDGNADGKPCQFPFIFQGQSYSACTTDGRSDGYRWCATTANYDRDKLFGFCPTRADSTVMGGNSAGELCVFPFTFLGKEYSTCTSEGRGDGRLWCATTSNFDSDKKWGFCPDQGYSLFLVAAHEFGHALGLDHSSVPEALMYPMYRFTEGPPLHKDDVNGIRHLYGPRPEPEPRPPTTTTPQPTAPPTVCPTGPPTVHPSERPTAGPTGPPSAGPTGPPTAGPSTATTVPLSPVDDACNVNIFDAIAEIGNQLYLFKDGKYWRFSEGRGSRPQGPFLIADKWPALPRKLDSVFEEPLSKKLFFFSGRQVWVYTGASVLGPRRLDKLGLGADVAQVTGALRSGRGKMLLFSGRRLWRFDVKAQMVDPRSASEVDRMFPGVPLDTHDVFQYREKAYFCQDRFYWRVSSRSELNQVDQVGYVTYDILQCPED

The molecule `Cc1nc(C)c(-c2csc(Nc3cc(C#N)ccc3OC(C)C)n2)s1` [Example 72, 3-(2′,4′-Dimethyl-[4,5′]bithiazolyl-2-ylamino)-4-isopropoxy-benzonitrile.HBr] yielded an IC50 in experiment [1] of 1000 nM. Besides, the Kd in experiment [2] came to 1200 nM; in experiment [3] it was 8.6 µM.
The like results for `CC(=O)Nc1nc(C)c(-c2csc(Nc3cc(C#N)ccc3OC(C)C)n2)s1` [Example 73, N-[2-(5-Cyano-2-isopropoxy-phenylamino)-4′-methyl-[4,5′]bithiazolyl-2′-yl]-acetamide.HBr] were, in that order, 520 nM, 330 nM and 4.3 µM.
Consider `Cc1nc(N)sc1-c1csc(Nc2cc(C(=O)O)ccc2OC(C)C)n1` [Example 77, 3-(2′-Amino-4′-methyl-[4,5′]bithiazolyl-2-ylamino)-4-isopropoxy-benzoic acid.TFA], for which, in experiment [1], half-maximal inhibition (IC50) required 410 nM. The Kd came to 450 nM in experiment [2] and 0.35 µM in experiment [3].
Regarding `COc1ccc(NC(C)=O)cc1Nc1nc(-c2sc(N)nc2C)cs1` [Example 84, N-[3-(2′-Amino-4′-methyl-[4,5′]bithiazolyl-2-ylamino)-4-methoxy-phenyl]-acetamide.TFA], the IC50 in experiment [1] turned out to be 9800 nM. In addition, the Kd in experiment [2] was determined as 9700 nM; in experiment [3], 19 µM.
With `Cc1nc(N2CCCC2)sc1-c1csc(Nc2cc(C(N)=O)ccc2OC(C)C)n1` [Example 91, 4-Isopropoxy-3-(4′-methyl-2′-pyrrolidin-1-yl-[4,5′]bithiazolyl-2-ylamino)-benzamide.TFA], half-maximal inhibition in experiment [1] (IC50) required 300 nM. The Kd in experiment [2] came out at 520 nM; in experiment [3] it was 0.14 µM.
Regarding `Cc1nc(Nc2ccncc2)sc1-c1csc(Nc2cc(C(N)=O)ccc2OC(C)C)n1` [Example 92, 4-Isopropoxy-3-[4′-methyl-2′-(pyridin-4-ylamino)-[4,5′]bithiazolyl-2-ylamino]-benzamide.TFA], the IC50 in experiment [1] worked out at 340 nM. The Kd in experiment [2] was 220 nM; in experiment [3], 0.045 µM.
The like results for `Cc1nc(-c2ncc(C(F)(F)F)cc2N2CCCC2)sc1-c1csc(Nc2cc(C(N)=O)ccc2OC(C)C)n1` [Example 97, 4-Isopropoxy-3-[4′-methyl-2′-(3-pyrrolidin-1-yl-5-trifluoromethyl-pyridin-2-yl)-[4,5′]bithiazolyl-2-ylamino]-benzamide.TFA] were, in that order, more than 20000 nM, more than 95000 nM and 1.9 µM.
Turning to `COc1ccc(-c2ccc(C(C)=O)s2)cc1Nc1nc(-c2sc(C)nc2C)cs1` [Example 134, 1-{5-[3-(2′,4′-Dimethyl-[4,5′]bithiazolyl-2-ylamino)-4-methoxy-phenyl]-thiophen-2-yl}-ethanone], the IC50 in experiment [1] is more than 20000 nM. Besides, the Kd is more than 95000 nM in experiment [2] and 18 µM in experiment [3].
In experiment [1], `COc1ccc(-c2c(C)noc2C)cc1Nc1nc(-c2sc(C)nc2C)cs1` [Example 135, (2′,4′-Dimethyl-[4,5′]bithiazolyl-2-yl)-[5-(3,5-dimethyl-isoxazol-4-yl)-2-methoxy-phenyl]-amine] came in with an IC50 of approximately 5000 nM. For the same molecule, the Kd in experiment [2] was determined as 40000 nM; in experiment [3], 31 µM.
On to `COc1ccc(-c2cnn(C)c2)cc1Nc1nc(-c2sc(C)nc2C)cs1` [Example 136, (2′,4′-Dimethyl-[4,5′]bithiazolyl-2-yl)-[2-methoxy-5-(1-methyl-1H-pyrazol-4-yl)-phenyl]-amine], for which the IC50 in experiment [1] was approximately 6000 nM. For the same molecule, the figures for the Kd in experiment [2] and in experiment [3] were 8200 nM and 38 µM, respectively.
The like results for `COc1ccc(-c2cc[nH]n2)cc1Nc1nc(-c2sc(C)nc2C)cs1` [Example 137, (2′,4′-Dimethyl-[4,5′]bithiazolyl-2-yl)-[2-methoxy-5-(1H-pyrazol-3-yl)-phenyl]-amine] were, in that order, 4700 nM, 2200 nM and 11 µM.
With `Cc1nc(-c2cnccn2)sc1-c1csc(Nc2cc(C(N)=O)ccc2OC(C)C)n1` [Example 145], the midpoint of inhibition in experiment [1], the IC50, lay at 780 nM. For the same molecule, the Kd was found to be 650 nM in experiment [2] and 0.13 µM in experiment [3].
In experiment [1], `COc1ccncc1Nc1nc(-c2sc(C)nc2C)cs1` [Example 151, N-(4-Methoxypyridin-3-yl)-2′,4′-dimethyl-[4,5′-bithiazol]-2-amine] had an IC50 of 410 nM. For the same molecule, the Kd is 570 nM in experiment [2] and 3.7 µM in experiment [3].
The molecule `Cc1nc(C)c(-c2nc(Nc3cc(S(N)(=O)=O)ccc3OC(C)C)sc2C)s1` [Example 152, 4-Isopropoxy-3-((2′,4′,5-trimethyl-[4,5′-bithiazol]-2-yl)amino)benzenesulfonamide] yielded an IC50 in experiment [1] of 4700 nM. The Kd in experiment [2] is 6400 nM; in experiment [3], 5.7 µM.
For `Cc1nc(C)c(-c2nc(Nc3cc(C(N)=O)ccc3OC(C)C)sc2C)s1` [Example 153, 4-Isopropoxy-3-((2′,4′,5-trimethyl-[4,5′-bithiazol]-2-yl)amino)benzamide], the IC50 in experiment [1] was 1400 nM. Moreover, the Kd in experiment [2] stood at 4500 nM; in experiment [3] it was 1.6 µM.
As for `CCSc1ccc(S(N)(=O)=O)cc1Nc1nc(-c2sc(C)nc2C)cs1` [Example 154, 3-((2′,4′-Dimethyl-[4,5′-bithiazol]-2-yl)amino)-4-(ethylthio)benzenesulfonamide], in experiment [1], half-maximal inhibition (IC50) was put at 2600 nM. In addition, the Kd in experiment [2] amounted to 2000 nM; in experiment [3], 2.2 µM.
The like results for `COc1ccncc1Nc1nc(-c2sc(N3CCN(C)CC3)nc2C)cs1` [Example 155, N-(4-Methoxypyridin-3-yl)-4′-methyl-2′-(4-methylpiperazin-1-yl)-[4,5′-bithiazol]-2-amine.TFA] were, in that order, 290 nM, 340 nM and 1.9 µM.

The IC50 is the concentration at which inhibition is half-maximal. By Kd is commonly meant a measure of binding affinity in units of concentration. A lower Kd goes with higher affinity.
